Assays:
Format in all cases: cell-based
[1] = tested on: LOU-NH91 cells (human lung squamous cell carcinoma cells); experiment: Proliferation assay (alamarBlue) with LOU-NH91 cells; conditions: for Activity Range (weighted arithmetic mean AVEw of normalized fluorescence intensity, relative to DMSO basis level 1.0): 20 μM; for Activity Range (weighted arithmetic mean of normalized fluorescence intensity, relative to DMSO basis level 1.0): control at 40 μM
Source text: (§1) The antiproliferative activities of compounds falling under formula (Ia), (Ib) and (Ic), respectively, were investigated on cells or cell lines originating from a disorder of the haematopoietic system, including the myeloid cell compartment and the lymphoid cell compartment (T-cells and B-cells), the neuroendocrine system, the cervix, the breast, the ovaries, the lung, the gastrointestinal tract, and the mucosal epithelium, as well as from the skin epithelium and from the muscle. To this end, HL-60 cells, NB-4 cells, HH cells, RPMI-8402 cells, TANOUE cells, TT cells, HeLa cells, MDA-MB-231 cells, FU-OV-1 cells, LOU-NH91 cells, 23132/87 cells, CAL-27 cells, BHY cells, SCC-25 cells, A-431 cells, human primary epidermal keratinocytes (HPEK), and C2C12 cells were seeded into 96-well plates suitable for fluorescence assays (CORNING #3598) at following initial cell numbers: 1000 cells per well for HL-60; 1000 cells per well for NB-4; 5000 cells per well for HH; 5000 cells per well for RPMI-8402; 1500 cells per well for TANOUE; 9000 cells per well for TT; 2000 cells per well for HeLa; 3000 cells per well for MDA-MB-231; 3000 cells per well for FU-OV-1; 4000 cells per well for LOU-NH91; 2000 cells per well for 23132/87; 2000 cells per well for CAL-27; 1500 cells per well for BHY; 1500 cells per well for SCC-25; 700 cells per well for A-431; 1000 cells per well for HPEK; 500 cells per well for C2C12. The cells were treated with compounds at indicated final concentrations (diluted from the 1000× stock-solutions in DMSO to a final DMSO concentration of 0.1% v/v in H2O (Water For Injection, WFI, Fisherscientific #10378939)) or with the empty carrier DMSO at 0.1% v/v as control for 5 days. At day 5 after starting the treatments the cells were subjected to the alamarBlue® Proliferation Assay (Bio-Rad Serotec GmbH, BUF012B) according to the protocol of the manufacturer. The readout was taken with a multi-well plate-reader in the fluorescence mode with applying a filter for excitation at 560 nm (band width 10 nm) and for emission at 590 nm (band width 10 nm). Control treatments for growth inhibition with commercial compounds such as Methotrexate (MTREX) and Resveratrol (RES) were included on every plate. Some of the test compounds of the present invention were obtained and applied as their salts. According cases are indicated in the column “Specification” in Table 55 to Table 92 and by their sum formula in Table 93.
(§2) The assays were performed in duplicate or more replicates of independent single experiments each containing a six-fold replicate for every condition. For every individual plate, the measured fluorescence intensity values of the conditions with compound treatment were normalized against the corresponding equally weighted arithmetic mean of the fluorescence intensity values of the six DMSO treated control wells in order to obtain the relative values to a baseline level of 1.0.
(§3) Two independent outlier analyses were performed according to the methods by Peirce and Chauvenet (Ross, Journal of Engineering Technology 2003, 1-12). Outliers confirmed by at least one of the methods were excluded from the calculations but not more than one value out of six per compound within a single experiment. The weighted arithmetic mean (here abbreviated as AVEw) for each compound was calculated from the normalized values over all independent replicates of the single experiments comprising the six replicates each. The corresponding standard deviation for the weighted arithmetic mean was calculated according to the method described by Bronstein et al. (Bronstein, Semendjajew, Musiol, Müihlig, Taschenbuch der Mathematik, 5th edition 2001 (German), publisher: Verlag Harri Deutsch, Frankfurt am Main and Thun) and was combined with the Gauß' error propagation associated with the performed calculation for the normalization. The resulting standard deviation is herein referred to as “combined standard deviation”. […]

[2] = tested on: MDA-MB-231 cells (human breast carcinoma cells); experiment: Proliferation assay (alamarBlue) with MDA-MB-231 cells; conditions: compound at 20 μM; for activity at 20 µM: Homo sapiens, Table 69 (novel compounds), read-out: Activity Range: weighted arithmetic mean (AVEw) of normalized fluorescence intensity relative to DMSO basis level 1.0; for Activity Range: weighted arithmetic mean (AVEw) of normalized fluorescence intensity relative to DMSO basis level 1.0: Table 70 (compounds of PCT/EP2018/054686)
Source text: as §1, §2, §3

[3] = tested on: BHY cells (human oral squamous cell carcinoma cells); experiment: Proliferation assay (alamarBlue) with BHY cells; parameters: key: fluorescence relative to mean of DMSO control wells = 1.0; conditions: for Activity Range (weighted arithmetic mean AVEw of normalized fluorescence intensity, relative to DMSO basis level 1.0): 20 μM; for Activity Range (weighted arithmetic mean of normalized fluorescence intensity, relative to DMSO basis level 1.0): control at 40 μM
Source text: as §1, §2, §3

[4] = tested on: SCC-25 cells (human tongue squamous cell carcinoma cells); experiment: Proliferation assay (alamarBlue) with SCC-25 cells; conditions: for Activity Range (weighted arithmetic mean AVEw of normalized fluorescence intensity, relative to DMSO basis level 1.0): 20 μM; for Activity Range (weighted arithmetic mean of normalized fluorescence intensity, relative to DMSO basis level 1.0): control at 40 μM
Source text: as §1, §2, §3

[5] = tested on: RPMI-8402 cells (human T cell acute lymphoblastic leukemia cells); experiment: Proliferation assay (alamarBlue) with RPMI-8402 cells
Source text: as §1, §2, §3

[6] = Table 74 (compounds disclosed in PCT/EP2018/054686)
[7] = Table 80 (compounds disclosed in PCT/EP2018/054686)
[8] = Table 81 (compounds disclosed in PCT/EP2018/054686)
[9] = Table 83 (compounds disclosed in PCT/EP2018/054686)
[10] = 20 μM, relative to DMSO basis level 1.0, Table 61 (novel compounds)
[11] = 20 μM, relative to DMSO basis level 1.0, Table 62 (compounds disclosed in PCT/EP2018/054686)

| Structure (SMILES) | Activity Range (weighted arithmetic mean AVEw of normalized fluorescence intensity, relative to DMSO basis level 1.0) ([1]; Table 73 (novel compounds)) | Activity Range (weighted arithmetic mean AVEw of normalized fluorescence intensity, relative to DMSO basis level 1.0) [1, 6] | activity at 20 µM [2] [%] | Activity Range: weighted arithmetic mean (AVEw) of normalized fluorescence intensity relative to DMSO basis level 1.0 [2] | Activity Range (weighted arithmetic mean AVEw of normalized fluorescence intensity, relative to DMSO basis level 1.0) ([3]; Table 79 (novel compounds)) | Activity Range (weighted arithmetic mean AVEw of normalized fluorescence intensity, relative to DMSO basis level 1.0) [3, 7] | Activity Range (weighted arithmetic mean AVEw of normalized fluorescence intensity, relative to DMSO basis level 1.0) [3, 8] | Activity Range (weighted arithmetic mean AVEw of normalized fluorescence intensity, relative to DMSO basis level 1.0) ([4]; Table 82 (novel compounds)) | Activity Range (weighted arithmetic mean AVEw of normalized fluorescence intensity, relative to DMSO basis level 1.0) [4, 9] | Activity Range: weighted arithmetic mean (AVEw) of normalized fluorescence intensity, proliferation assay with RPMI-8402 cells [5, 10] | Activity Range: weighted arithmetic mean (AVEw) of normalized fluorescence intensity, proliferation assay with RPMI-8402 cells [5, 11] | Activity Range (weighted arithmetic mean of normalized fluorescence intensity, relative to DMSO basis level 1.0) ([1]; Table 73) | Activity Range (weighted arithmetic mean of normalized fluorescence intensity, relative to DMSO basis level 1.0) ([1]; Table 74) | Activity Range (weighted arithmetic mean of normalized fluorescence intensity, relative to DMSO basis level 1.0) ([3]; Table 79) | Activity Range (weighted arithmetic mean of normalized fluorescence intensity, relative to DMSO basis level 1.0) ([3]; Table 80) | Activity Range (weighted arithmetic mean of normalized fluorescence intensity, relative to DMSO basis level 1.0) ([3]; Table 81) | Activity Range (weighted arithmetic mean of normalized fluorescence intensity, relative to DMSO basis level 1.0) ([4]; Table 82) | Activity Range (weighted arithmetic mean of normalized fluorescence intensity, relative to DMSO basis level 1.0) ([4]; Table 83) | Activity Range: weighted arithmetic mean (AVEw) of normalized fluorescence intensity, proliferation assay with RPMI-8402 cells ([5]; control at 40 μM, relative to DMSO basis level 1.0, Table 61) | Activity Range: weighted arithmetic mean (AVEw) of normalized fluorescence intensity, proliferation assay with RPMI-8402 cells ([5]; control at 40 μM, relative to DMSO basis level 1.0, Table 62) |
| --- | --- | --- | --- | --- | --- | --- | --- | --- | --- | --- | --- | --- | --- | --- | --- | --- | --- | --- | --- | --- |
| CN(Cc1cnc2nc(N)nc(N)c2n1)c1ccc(C(=O)N[C@@H](CCC(=O)O)C(=O)O)cc1 [MTREX, Methotrexate] | 0.5 ± 0.1 | 0.5 ± 0.1 | 60 | 0.6 ± 0.0 | 0.3 ± 0.0 | 0.3 ± 0.0 | 0.3 ± 0.0 | 0.5 ± 0.1 | 0.5 ± 0.1 | 0.1 ± 0.0 | 0.1 ± 0.0 | – | – | – | – | – | – | – | – | – |
| Oc1ccc(C=Cc2cc(O)cc(O)c2)cc1 [RES, Resveratrol] | 0.9 ± 0.1 | 0.9 ± 0.1 | 60 | 0.6 ± 0.0 | – | 0.5 ± 0.1 | 0.5 ± 0.1 | 0.4 ± 0.1 | 0.4 ± 0.1 | 0.6 ± 0.0 | 0.6 ± 0.0 | 0.7 ± 0.0 | 0.7 ± 0.0 | 0.3 ± 0.0 | 0.3 ± 0.0 | 0.3 ± 0.0 | 0.1 ± 0.0 | 0.1 ± 0.0 | 0.1 ± 0.0 | 0.1 ± 0.0 |
